Measurements: patent publication US4177269A, “Novel 17-esters of 17α-hydroxy gestogens, compositions containing such compounds, processes for their preparation and methods of treatment therewith” (Aktiebolaget Leo, priority 1976, dated 1979)

Key:
[1] = Walker carcinosarcoma 256 tumour growth inhibition in rats; type: in vivo, Sprague-Dawley rats; parameters: ED50: unit: mg/kg; details: rat, in vivo, po, daily p.o. for 5 days
Summary of the method: (§1)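 Sprague-Dawley rats implanted with Walker 256 tumour pieces 2-4 mm across. Compound dosed p.o. daily for 5 days from the day after implantation, and animals killed on day 9. Tumour weights compared with controls. ED50 is the dose giving 50% tumour-size reduction, and LD50 is the dose giving 50% lethality.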

[2] = test system: Walker carcinosarcoma 256; assay: as above; type: in vivo, Sprague-Dawley rats; parameters: ED50: unit: mg/kg; details: daily p.o. for 5 days, dose causing 50 percent reduction of tumour size, killed 9th day
Summary of the method: as §1

[3] = Hepatome AH 130 tumour growth inhibition in rats; type: in vivo, Sprague-Dawley rats; parameters: ED50: unit not given here; details: rat, in vivo, ip, one i.p. injection
Summary of the method: (§2)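 Sprague-Dawley rats implanted i.p. with 5 × 10^6 tumour cells, given a single i.p. injection the day after implantation, and killed on day 8. Tumour weights compared with controls; ED50 is the dose halving tumour size, LD50 the dose lethal to 50% of animals.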

Hepatome AH 130 = Hepatome AH 130 tumour growth inhibition in rats; type: in vivo, Sprague-Dawley rats; parameters: ED50: unit not given here; details: one i.p. injection, dose causing 50 percent reduction of tumour size, killed 8th day
Summary of the method: as §2

[4] = test system: Lymphatic leukemia L 1210; assay: Lymphatic leukemia L 1210 survival in mice; type: in vivo, CDF1 (C3H×DBA/2)F1 mice; details: one i.p. injection; for Weight change Δv: T - C up to the 5th day
Excerpt: The experimental design and the interpretation of the results are in accordance with the standards set by the CCNSC (Cancer Chemotherpy Reports, January 1959 and December 1962).
Lymphatic leukemia L 1210.
Experimental animals: CDF1 (C3H×DBA/2)F1 mice
Tumour implant: 10^5 tumour cells i.p.
Therapy: One injection i.p. on the day following implanta-
Evaluation: (a) The survival time of the test animals (t)
expressed as the percentage of that of control animals (c).
(b) Weight change in the test animals (T) compared with that
of the control animals (C) up to the 5th day.
(c) The mortality rate must not exceed 35% in the test
animals on the 5th day of therapy.

SMILES: CC(=O)[C@@]1(OC(=O)COC(=O)c2ccc(C)c(N(CCCl)CCCl)c2)CC[C@H]2[C@@H]3CCC4=CC(=O)CC[C@]4(C)[C@H]3CC[C@@]21C [Compound 3:7, 17α-/3-(N,N-bis(2-chloroethyl)amino)-4-methylbenzoyloxyacetoxy/pregn-4-ene-3,20-dione]
- LD50 ([1]; dose causing 50 percent lethality): > 250 mg/kg
- selectivity ratio ([1]; read-out: T.I. (LD50/ED50)): > 15
- ED50 [2]: 16
- LD50 ([3]; dose causing 50 percent lethality, column head not given): > 250 mg/kg
- selectivity ratio ([3]; read-out: T.I. (LD50/ED50)): > 125
- ED50 (Hepatome AH 130): 2
- Effect (survival time of test animals as percentage of that of control animals) ([4]; 250 mg/kg): 130%
- Mortality ([4]; 250 mg/kg): 0/20
- Weight change Δv ([4]; 250 mg/kg): -4.0 g
- Effect (survival time of test animals as percentage of that of control animals) ([4]; 500 mg/kg): 172%
- Mortality ([4]; 500 mg/kg): 0/19
- Weight change Δv ([4]; 500 mg/kg): -5.2 g
